Measurements: patent publication US9365851B2, “Spalt-like transcription factor 4 (SALL4) and uses thereof” (National University of Singapore, priority 2011, dated 2016)

Experiments:
[1] = tested on: SALL4A and SALL4B; experiment: SALL4 knock-down in endometrial cancer cells (Western blot, qRT-PCR); format: cell-based, human; details: AN3CA and HEC-1A
Excerpt: In brief, the expression plasmids for human SALL4A and SALL4B were constructed using FUW-Luc-mCh-puro vector (FIG. 43A). SALL4A or SALL4B mutant preserving the same amino acid sequence, but containing triple-point mutations within the SALL4shRNA1 target nucleotide sequence, which renders the transgenes resistant to SALL4 shRNA targeting, were generated using QuikChange site-directed mutagenesis kit (Stratagene) and confirmed by sequencing. Short hairpin RNAs set for human SALL4 in pLKO.1-puro vector were purchased from Open Biosystems (RHS3979) and knockdown efficiency was further evaluated. Two of them, designated as SALL4shRNA1 and SALL4shRNA 2, were selected for subsequent experiments. The sequences for SALL4 shRNAs and Scramble shRNA are listed as following: SALL4shRNA1: […] (SEQ ID NO: 3); SALL4shRNA 2: CTATTTAGCCAAAGGCAAA (SEQ ID NO: 2); Scr-shRNA: […] (SEQ ID NO: 14)
To assess the biological functional role of SALL4 in endometrial cancer, first evaluated was SALL4 expression in a panel of six endometrial cancer cell lines using quantitative real-time PCR to select for appropriate models for our functional studies (FIG. 40). […]

[2] = tested on: SNU-398 cells; experiment: Caspase 3/7 assay in SNU-398 cells; format: cell-based, human; details: SNU-398 after knockdown
Excerpt: FIGS. 25A-25G: Functional roles of SALL4 in HCC. (25A) qPCR analysis of relative SALL4A and SALL4B expression on SNU-398 cells four days post-transduction. Error bars indicate standard error of three replicates. (25B) Western blot analysis of SALL4 expression on SNU-398 cells four days post-transduction. (25C) MTS analysis of cell viability upon gene knockdown by scrambled control shRNA (Scr) or E5 shRNA targeting SALL4 (E5) on SNU-398 (left) or SNU-387 (right) cells. Error bars indicate standard error of three replicates. (25D) Cell counting assay using trypan blus stain. […] (25F) Effects of SALL4 gene knockdown on tumorigenecity of HuH-7 cells. Representative images of mice transplanted with HuH-7 cells infected with virus expressing scrambled shRNA or E5 shRNA (top).
To further characterize the effects of loss of SALL4 in HCC cells, more functional assays in SNU-398 cells, which express high SALL4, were carried out. […] Furthermore, increased apoptosis in SALL4-knockdown HCC cells was observed by assessing caspase activities. Increased caspase 3/7 activities was observed upon loss of SALL4 in SNU-398 HCC cells (FIG. 30D), as well as increased cleaved caspase 3 (FIG. 30E).

[3] = tested on: H661 lung carcinoma cells; experiment: MTS assay in lung carcinoma cells after knock-down; format: cell-based
Excerpt: FIGS. 16A-16B: Loss of SALL4 in lung cancer cells that express high level of SALL4 decreases cell viability. (16A) qPCR (bar chart) and western blot were done to confirm the dwonregulation of SALL4 RNA (qPCR) and protein (western blot) expression levels upon SALL4 gene knockdown by shRNA (E5) compared to the control (SC).

[4] = tested on: NP4; experiment: Cellular uptake of FITC-labeled peptide; format: cell-based
Method: (§1) Cells were grown typically in 6 well plates (35 mm dish) to 50-70% confluence. Usually the transfect ion efficiency is somehow cell type specific. 2 mM peptide was diluted 4 times in PBS (2 ul+6 ul) (For FITC peptidedo not dilute the 2 mM stock). For each transfection reaction tube with 100 ul PBS+1 ul diluted peptide was set up. Chariot reagent was diluted 1:10 in ddH2O and for each transfection a 94 ul H2O tube+6 ul diluted Chariot was prepared (No master mix for more than 4 transfections). The 2 tubes were carefully mixed by pipetting up and down and incubated 30 min. at room temperature. Medium was aspirated from the dish (well) and cells were overlay with the mix. 400 ul serum free medium was added and cells were incubated further for 1 h 37 C (cell incubator). 500 ul complete medium (with 10% serum) was finally added. If cells are not very sensitive to serum starvation (cancer cell lines) 5% serum could be used.
(§2) Fluorescent and Confocal microscopy was performed on cells treated with FITC labeled peptides with or without of transfection reagent depending on the cell type. Cells were mounted on cover slips using mounting media with DAPI (Invitrogen) and in some cases cytoskeleton dye (Invitrogen).
(§3) In order to evaluate their cellular uptake and localization, the N terminus of these peptides was labeled with fluorescein isothiocyanate (FITC). Despite the net positive charge of these peptides, their uptake by the cells is cell-type specific. Some cell lines such as HL-60 (an AML cell line) allowed the peptide to enter the cells without any modification or carrier, and some cell lines were not penetrable at all. In order to achieve a similar level of peptide delivery in most cell types, a Chariot Transfection Reagent (Active Motif) was used as a peptide carrier, as directed from the manufacturer. All cell types used in the study described herein were subjected to individual evaluation of the percentage of the cells in which the peptide was delivered as well as the duration of time during which they sustained the labeled peptide in the cells. After Chariot treatment, confocal microscopy studies confirmed uptake of these peptides throughout the cell, including nuclei (as evidenced by DAPI overlay, FIG. 1B).

[5] = tested on: KG1a; experiment: Cellular uptake of FITC-labeled peptide; format: cell-based
Method: as §1, §2, §3

[6] = tested on: HeLa; experiment: Cellular uptake of FITC-labeled peptide; format: cell-based
Method: as §1, §2, §3

[7] = tested on: AML3; experiment: Cellular uptake of FITC-labeled peptide; format: cell-based
Method: as §1, §2, §3

[8] = tested on: CD34+; experiment: Cellular uptake of FITC-labeled peptide; format: cell-based
Method: as §1, §2, §3

[9] = tested on: MCF7; experiment: Cellular uptake of FITC-labeled peptide; format: cell-based
Method: as §1, §2, §3

Row | peptide uptake (cells with peptide) ([4]; NP4, no carrier) [%] | peptide uptake (cells with peptide) ([4]; NP4, with Chariot) [%] | peptide uptake (cells with peptide) ([5]; no carrier) [%] | peptide uptake (cells with peptide) ([5]; with Chariot) [%] | peptide uptake (cells with peptide) ([6]; no carrier) [%] | peptide uptake (cells with peptide) ([6]; with Chariot) [%] | peptide uptake (cells with peptide) ([7]; AML3, no carrier) [%] | peptide uptake (cells with peptide) ([7]; AML3, with Chariot) [%] | peptide uptake (cells with peptide) ([8]; no carrier) [%] | peptide uptake (cells with peptide) ([8]; with Chariot) [%] | peptide uptake (cells with peptide) ([9]; MCF7, no carrier) [%] | peptide uptake (cells with peptide) ([9]; MCF7, with Chariot) [%] | Substance | down-regulation of SALL4A and SALL4B [1] | caspase 3/7 activity (apoptosis) [2] | cell viability (MTS) [3]
1 |  |  |  |  |  |  |  |  |  |  |  |  | CTATTTAGCCAAAGGCAAA (short hairpin RNA, chemistry and delivery not given here, further chemistry not given here) [E5 shRNA] | could down-regulate SALL4A and SALL4B efficiently | increase in apoptosis activity | decrease of cell viability
2 | >1 | >5 | >10 | 60 | 0 | 80 | ~5 | 50 | 0 | 50 | ~50 | 70 | H-MSRRKQAKPQHI-OH [wt peptide, MSRRKQAKPQHI] |  |  | 
